# Source: publication PMC4701221, “Novel Promising Estrogenic Receptor Modulators: Cytotoxic and Estrogenic Activity of Benzanilides and Dithiobenzanilides” (PLoS ONE, 2016)
# Tested on: MDA-MB-231 cells
# Assay: Sulphorodamine B assay, MDA-MB-231
# Format: cell-based, human
# Conditions: 72 h, Fig 2
# Procedure: In addition to the MTT assay, cell viability was measured by the Sulphorodamine B assay according to Vichai and Kirtikara. The MCF-7 and MDA-MB-23 cells were seeded and treated as for the MTT assay. After incubation the medium was removed and the cells were fixed with cold (4°C) trichloroacetic acid (final concentration 10%) for 1h. Than plates were washed 4 times with water and stained for 30 min, following by staining with sulforhodamine B (SRB) 0.4% in 1% acetic acid solution at room temperature for 20 min. After staining, the SRB solution was removed and the plates washed 5 times with 1% acetic acid dried. Bound SRB was solubilized with 200 μl 10 mM unbuffered Tris-base solution and plates were shaked for 10 min. The absorbance at 510 nm was measured using a plate reader (Biotek Instruments, Elx-800).
smiles,measurement,value
Fc1ccc(NC(=S)c2ccc(NC(=S)c3ccc(F)cc3)cc2)cc1 [Compound 18],"Effect in SRB assay, MDA-MB-231",non-significant effects
